Reference: paper PMC7377239, “Cardiovascular Effects of Polychlorinated Biphenyls and Their Major Metabolites” (Environmental Health Perspectives, 2020)
Like-named read-outs stand apart in the source and are kept apart here.

Legend:
HUVECs = test: High-content imaging cytotoxicity in HUVECs, 24 h; assay type: cell-based, human; settings: Homo sapiens, HUVEC, 24 h, HUVECs; for viability at 0.01 µM / activity at 0.01 µM: concentration 0.01 µM; for viability at 0.01 µM / activity at 0.01 µM / viability at 0.1 µM / activity at 0.1 µM / viability at 1 µM / activity at 1 µM / viability at 10 µM / activity at 10 µM / viability at 100 µM / activity at 100 µM: 0.00 µM = 100.00; for viability at 0.1 µM / activity at 0.1 µM: concentration 0.10 µM; for viability at 1 µM / activity at 1 µM: concentration 1.00 µM; for viability at 10 µM / activity at 10 µM: concentration 10.00 µM; for viability at 100 µM / activity at 100 µM: concentration 100.00 µM; for minimal effective concentration: MAX 100.00
In short: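 Confluent HUVEC monolayers, passages 1–5, received test chemicals for 24 h. Cytotoxicity was scored from triple-stain high-content images, with PODs defined by a one-SD deviation from 0.5% DMSO vehicle controls.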

[1] = test system: iCell cardiomyocytes (human iPSC-derived cardiomyocytes); test: High-content imaging of cytotoxicity and mitochondrial integrity in iPSC-CMs; assay type: cell-based; settings: Homo sapiens, Cardiomyocyte; for viability at 0.01 µM / activity at 0.01 µM / viability at 0.1 µM / activity at 0.1 µM / viability at 1 µM / activity at 1 µM / viability at 10 µM / activity at 10 µM / viability at 100 µM / activity at 100 µM: 0.00 µM = 100.00; for viability at 0.1 µM / activity at 0.1 µM: 0.10 µM
In short: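 This assay measured cytotoxicity and mitochondrial integrity in iPSC cardiomyocytes held in 40μL maintenance medium. After compound exposure, a 2× staining solution with Hoechst 33342 (4μg/mL) and MitoTracker™ Orange (0.4μM) was applied for 15 min at 37°C. Cells were washed, fixed with 3.7% formaldehyde, imaged on DAPI and Cy3 channels, and scored in MetaXpress®.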

[2] = 24 hr, read-out: huvec.cyto.24hr
[3] = 24 hr, read-out: huvec.mito.24hr
[4] = 24 hr, read-out: huvec.mitoint.24hr
[5] = 24 hr, read-out: huvec.nma.24hr
[6] = 24 hrs, read-out: huvec.tc.24hrs
[7] = 1.5 h, 90min, read-out: cm.cam.90min
[8] = 1.5 h, 90min, read-out: cm.mii.90min
[9] = 1.5 h, 90min, read-out: cm.mito.90min
[10] = 1.5 h, 90min, read-out: cm.tc.90min
[11] = 24 h, 24hrs, read-out: cm.cam.24hrs
[12] = 24 h, 24hrs, read-out: cm.mii.24hrs
[13] = 24 h, 24hrs, read-out: cm.mito.24hrs
[14] = 24 h, 24hrs, read-out: cm.tc.24hrs

COc1cc(Cl)c(-c2cc(Cl)ccc2Cl)cc1Cl [4-OMe PCB52]
viability at 0.01 µM (HUVECs; [2]): 105% | activity at 0.01 µM (HUVECs; [3]): 105% | activity at 0.01 µM (HUVECs; [4]): 107% | activity at 0.01 µM (HUVECs; [5]): 98.6% | viability at 0.1 µM (HUVECs; [2]): 102% | activity at 0.1 µM (HUVECs; [3]): 102% | activity at 0.1 µM (HUVECs; [4]): 114% | activity at 0.1 µM (HUVECs; [5]): 99.1% | viability at 1 µM (HUVECs; [2]): 85.9% | activity at 1 µM (HUVECs; [3]): 85.8% | activity at 1 µM (HUVECs; [4]): 113% | activity at 1 µM (HUVECs; [5]): 104% | viability at 10 µM (HUVECs; [2]): 57.8% | activity at 10 µM (HUVECs; [3]): 31.1% | activity at 10 µM (HUVECs; [4]): 11.1% | activity at 10 µM (HUVECs; [5]): 54.2% | viability at 100 µM (HUVECs; [2]): 60% | activity at 100 µM (HUVECs; [3]): 23% | activity at 100 µM (HUVECs; [4]): 13.4% | activity at 100 µM (HUVECs; [5]): 63.6% | minimal effective concentration (HUVECs; 24 hr, read-out: huvec.cyto.24hr POD): 0.78 µM | minimal effective concentration (HUVECs; 24 hr, read-out: huvec.mito.24hr POD): 0.55 µM | minimal effective concentration (HUVECs; 24 hr, read-out: huvec.mitoint.24hr POD): 2.69 µM | minimal effective concentration (HUVECs; 24 hr, read-out: huvec.nma.24hr POD): 2.36 µM | viability at 0.01 µM (HUVECs; [6]): 105% | viability at 0.1 µM (HUVECs; [6]): 102% | viability at 1 µM (HUVECs; [6]): 85.9% | viability at 10 µM (HUVECs; [6]): 57.9% | viability at 100 µM (HUVECs; [6]): 60% | minimal effective concentration (HUVECs; 24 hrs, read-out: huvec.tc.24hrs POD): 0.78 µM | viability at 0.01 µM [1, 7]: 94.3% | activity at 0.01 µM [1, 8]: 101% | activity at 0.01 µM [1, 9]: 94.1% | viability at 0.01 µM [1, 10]: 94.2% | viability at 0.1 µM [1, 7]: 98.7% | activity at 0.1 µM [1, 8]: 90.9% | activity at 0.1 µM [1, 9]: 98.7% | viability at 0.1 µM [1, 10]: 98.8% | viability at 1 µM [1, 7]: 101% | activity at 1 µM [1, 8]: 95.2% | activity at 1 µM [1, 9]: 101% | viability at 1 µM [1, 10]: 101% | viability at 10 µM [1, 7]: 100% | activity at 10 µM [1, 8]: 108% | activity at 10 µM [1, 9]: 99.8% | viability at 10 µM [1, 10]: 100% | viability at 100 µM [1, 7]: 0.37% | activity at 100 µM [1, 8]: 69.6% | activity at 100 µM [1, 9]: 0.37% | viability at 100 µM [1, 10]: 0.46% | minimal effective concentration ([1]; 1.5 h, 90min, read-out: cm.cam.90min POD): 27.6 µM | minimal effective concentration ([1]; 1.5 h, 90min, read-out: cm.mii.90min POD): 57.2 µM | minimal effective concentration ([1]; 1.5 h, 90min, read-out: cm.mito.90min POD): 18.6 µM | minimal effective concentration ([1]; 1.5 h, 90min, read-out: cm.tc.90min POD): 33 µM | viability at 0.01 µM [1, 11]: 97.9% | activity at 0.01 µM [1, 12]: 95.9% | activity at 0.01 µM [1, 13]: 98.7% | viability at 0.01 µM [1, 14]: 98.3% | viability at 0.1 µM [1, 11]: 106% | activity at 0.1 µM [1, 12]: 91.2% | activity at 0.1 µM [1, 13]: 107% | viability at 0.1 µM [1, 14]: 106% | viability at 1 µM [1, 11]: 102% | activity at 1 µM [1, 12]: 99.8% | activity at 1 µM [1, 13]: 101% | viability at 1 µM [1, 14]: 102% | viability at 10 µM [1, 11]: 102% | activity at 10 µM [1, 12]: 78.7% | activity at 10 µM [1, 13]: 103% | viability at 10 µM [1, 14]: 102% | viability at 100 µM [1, 11]: 4.05% | activity at 100 µM [1, 12]: 55.8% | activity at 100 µM [1, 13]: 2.86% | viability at 100 µM [1, 14]: 4.37% | minimal effective concentration ([1]; 24 h, read-out: cm.cam.24hrs POD): 33 µM | minimal effective concentration ([1]; 24 h, read-out: cm.mii.24hrs POD): 5.58 µM | minimal effective concentration ([1]; 24 h, read-out: cm.mito.24hrs POD): 35.8 µM | minimal effective concentration ([1]; 24 h, read-out: cm.tc.24hrs POD): 35 µM
